Reference: PMC5111108, “An insecticide resistance-breaking mosquitocide targeting inward rectifier potassium channels in vectors of Zika virus and malaria” (Scientific Reports, 2016)

Tests used:
Kir6.2/SUR1 = target: T1, Kir6.2/SUR1 (Homo sapiens, UniProt Q14654); test: Tl+ flux assay, mammalian Kir6.2/SUR1; assay type: cell-based
T1 construct: expressed in transfected cells

AeKir1 = target: T2, AeKir1 (Aedes aegypti, UniProt L0EQS9); test: Two-electrode voltage clamp in Xenopus oocytes expressing AeKir1 or AeKir2B; assay type: cell-based; details: 50 μM, inward K+ currents at -140 mV
T2 sequence (L0EQS9 1-486): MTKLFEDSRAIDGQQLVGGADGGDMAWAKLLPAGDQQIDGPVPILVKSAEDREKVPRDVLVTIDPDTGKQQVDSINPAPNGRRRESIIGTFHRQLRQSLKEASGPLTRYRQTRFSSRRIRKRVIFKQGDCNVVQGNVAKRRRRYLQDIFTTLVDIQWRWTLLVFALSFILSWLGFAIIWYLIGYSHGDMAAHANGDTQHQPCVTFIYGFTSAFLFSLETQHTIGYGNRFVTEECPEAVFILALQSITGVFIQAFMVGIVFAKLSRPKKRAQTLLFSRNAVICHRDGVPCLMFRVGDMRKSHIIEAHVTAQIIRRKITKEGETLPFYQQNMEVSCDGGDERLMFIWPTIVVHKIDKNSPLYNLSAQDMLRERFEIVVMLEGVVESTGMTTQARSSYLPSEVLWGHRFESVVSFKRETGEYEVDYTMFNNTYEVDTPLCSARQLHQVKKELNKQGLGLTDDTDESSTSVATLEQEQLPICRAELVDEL
Experimental: Heterologous expression of AeKir1 or AeKir2B was performed in Xenopus laevis oocytes as described previously. Current-voltage (I-V) relationships of oocytes were acquired by clamping the membrane potential (Vm) near the spontaneous, resting Vm and then initiating a voltage-stepping protocol (via the Clampex module of pCLAMP) consisting of 20 mV steps from −140 mV to +40 mV (100 ms each). Additional details are provided in the Supplemental Methods.
Patch clamp electrophysiology
Patch electrodes were pulled from silanized 1.5 mm outer diameter borosilicate microhematocrit tubes using a P-1000 Flaming/Brown micropipette puller (Sutter Instrument, Novato CA, USA). Electrode resistance ranged from 2 -4 MΩ. Whole-cell currents were recorded under voltage-clamp conditions using an Axopatch 200B amplifier (Molecular D evices, Sunn yvale, CA). […]
The voltage clamp was then turned off during solution changes, and when the oocyte reach ed a n ew stead y-state Vm (~90 s) the I-V relationship of the ooc yt e was acquired again. All Vm and Im v alues were digitally recorded (Digidata 1440A Data Acquisition System, Molecular Devices) and the r esulting I-V plots were generated with the Clampfit module of pC LAMP. […]
[…]

An. gambiae = test: Fecundity (eggs laid) in An. gambiae; assay type: in vivo, Anopheles gambiae; details: VU041 ~1 μg/mg, VU937 ~10 μg/mg, topical within 1 h after engorgement, 72 h post blood feeding
Experimental: After treatment with the respective drugs, individual female mosquitoes were transferred to Drosophila vials (Fisher Scientific, Pittsburg, OA) containing 2 mL of water. The total number of eggs were counted 72-hours after being transferred to the vial. Any mosquitoes that died during this 72-hour period were excluded from the analysis. […] At least 25 female mosquitoes were used per replicate for each treatment group; each treatment was repeated on three separate broods, giving a total number of individuals studied ranging from 75–113 for each group.

Ae. aegypti = test: Fecundity (eggs laid) in Ae. aegypti; assay type: in vivo, Aedes aegypti; details: 3.4 μg/mg mosquito, topical within 1 h after engorgement, 72 h post blood feeding
Experimental: The mosquitoes were returned to rearing conditions for 24 h after which they were transferred to individual egg laying tubes consisting of a glass tube 21 × 70 mm (Fisher Scientific, Pittsburg, PA) with a piece of coffee filter ([…] USA, Clearwater, FL) cut to fit the bottom of the tube. The filter was wetted with 150 μl of dH2O and the open end of the tube was plugged with a cotton ball. The mosquitoes in their individual egg laying tubes were returned to rearing conditions for an additional 48 h, and the number of eggs laid were counted. Any mosquitoes that died during the 72 h period after blood feeding were excluded from the analysis. Thirty female mosquitoes were used per replicate for each treatment group; each treatment was repeated on four separate broods, giving a total number of individuals studied ranging from 87-113 for each treatment group. For both species, the median number of eggs laid per mosquito was compared using a Kruskal-Wallis ANOVA with a Dunn's post-hoc analysis (Prism 6, Graphpad Software).

T1 sequence (Q14654 whole entry): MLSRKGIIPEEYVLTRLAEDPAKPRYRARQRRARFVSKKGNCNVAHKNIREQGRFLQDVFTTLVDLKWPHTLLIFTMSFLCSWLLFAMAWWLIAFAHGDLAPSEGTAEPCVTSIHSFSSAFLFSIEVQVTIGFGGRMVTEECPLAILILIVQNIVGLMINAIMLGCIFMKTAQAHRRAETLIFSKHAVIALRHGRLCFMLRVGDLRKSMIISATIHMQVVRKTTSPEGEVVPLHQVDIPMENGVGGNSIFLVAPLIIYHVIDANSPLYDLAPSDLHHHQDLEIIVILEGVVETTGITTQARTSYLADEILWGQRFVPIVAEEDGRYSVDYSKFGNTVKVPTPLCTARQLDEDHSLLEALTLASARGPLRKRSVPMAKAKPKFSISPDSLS
T1 sequence (Q09428 whole entry partner): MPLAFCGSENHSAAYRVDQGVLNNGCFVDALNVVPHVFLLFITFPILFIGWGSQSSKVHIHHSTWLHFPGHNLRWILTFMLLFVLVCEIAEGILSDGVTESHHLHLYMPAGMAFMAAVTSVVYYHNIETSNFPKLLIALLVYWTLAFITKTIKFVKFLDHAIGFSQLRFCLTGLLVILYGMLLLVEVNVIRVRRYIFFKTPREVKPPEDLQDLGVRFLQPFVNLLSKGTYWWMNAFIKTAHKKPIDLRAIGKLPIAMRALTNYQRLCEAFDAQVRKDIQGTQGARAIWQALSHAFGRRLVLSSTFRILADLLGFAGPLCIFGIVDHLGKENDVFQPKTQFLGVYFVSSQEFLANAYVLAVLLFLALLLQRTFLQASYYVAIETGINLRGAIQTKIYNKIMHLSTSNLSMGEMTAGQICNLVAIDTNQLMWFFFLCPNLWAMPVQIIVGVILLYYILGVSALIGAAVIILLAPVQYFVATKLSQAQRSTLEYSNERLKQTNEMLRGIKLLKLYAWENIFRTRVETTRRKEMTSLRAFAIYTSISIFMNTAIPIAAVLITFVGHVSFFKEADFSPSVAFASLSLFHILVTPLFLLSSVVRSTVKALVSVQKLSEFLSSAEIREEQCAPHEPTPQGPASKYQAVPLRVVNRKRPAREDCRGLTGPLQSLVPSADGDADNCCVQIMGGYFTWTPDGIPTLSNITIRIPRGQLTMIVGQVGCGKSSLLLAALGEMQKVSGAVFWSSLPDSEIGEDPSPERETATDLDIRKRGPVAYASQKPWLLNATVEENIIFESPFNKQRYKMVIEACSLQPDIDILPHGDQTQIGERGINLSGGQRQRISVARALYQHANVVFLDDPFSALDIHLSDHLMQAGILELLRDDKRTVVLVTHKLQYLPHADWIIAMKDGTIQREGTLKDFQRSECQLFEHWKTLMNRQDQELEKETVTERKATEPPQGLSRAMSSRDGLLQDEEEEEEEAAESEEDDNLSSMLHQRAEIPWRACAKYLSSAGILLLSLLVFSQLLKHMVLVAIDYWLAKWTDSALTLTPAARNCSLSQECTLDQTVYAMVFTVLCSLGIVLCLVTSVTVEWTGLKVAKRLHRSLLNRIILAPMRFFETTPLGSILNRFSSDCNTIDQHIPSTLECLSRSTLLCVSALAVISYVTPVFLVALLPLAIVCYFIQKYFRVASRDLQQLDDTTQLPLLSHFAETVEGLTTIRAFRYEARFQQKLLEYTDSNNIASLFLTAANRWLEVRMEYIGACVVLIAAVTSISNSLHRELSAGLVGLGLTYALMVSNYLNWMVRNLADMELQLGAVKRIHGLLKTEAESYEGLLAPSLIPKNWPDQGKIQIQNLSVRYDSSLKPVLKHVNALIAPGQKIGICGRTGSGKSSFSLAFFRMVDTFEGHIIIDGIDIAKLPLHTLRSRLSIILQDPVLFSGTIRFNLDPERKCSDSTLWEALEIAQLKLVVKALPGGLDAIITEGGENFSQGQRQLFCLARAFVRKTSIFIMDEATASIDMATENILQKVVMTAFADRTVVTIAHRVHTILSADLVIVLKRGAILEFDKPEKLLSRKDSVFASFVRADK

O=C(Cn1nc(C(F)(F)F)c2c1CCCC2)N1CCCc2ccccc21 [VU041, 1-(3,4-dihydroquinolin-1(2H)-yl)-2-(3-(trifluoromethyl)-4,5,6,7-tetrahydro-1H-indazol-1-yl)ethan-1-one]
inhibition at 30 µM (Kir6.2/SUR1): < 10% | preference of inhibition AeKir1 vs AeKir2B (AeKir1): preferentially inhibited AeKir1 over AeKir2B | median number of eggs laid per mosquito vs control (An. gambiae): significantly lower median number of eggs per mosquito | median number of eggs laid per mosquito vs control (Ae. aegypti): significantly lower median number of eggs per mosquito
